The text below walks through data of patent publication US20070128217A1 (priority 2003, published 2007).

The subject of assay [1] is antibodies in sera from SARS patients (sera 1a, 1b, 2, 6, 37, 62, London, SARS-yellow, SARS-green). Format: binding, human. Set-up: Binding of serum 6 to linear peptides of protein X1 of SARS-CoV Urbani / Binding of serum 37 to linear peptides of protein X1 of SARS-CoV Urbani / Binding of serum 6 to looped/cyclic peptide (PEPSCAN-ELISA) / Binding of serum 37 to looped/cyclic peptide (PEPSCAN-ELISA) / Binding of serum 37 to looped/cyclic peptides of protein X1 of SARS-CoV Urbani / Binding of serum 6 to linear peptides of protein X2 / Binding of serum 37 to linear peptides of protein X2 / Binding of serum 37 to looped/cyclic peptides of protein X2 of SARS-CoV Urbani / Binding of serum 6 to linear peptides of protein M of SARS-CoV Urbani / Binding of serum 37 to linear peptides of protein M of SARS-CoV Urbani / Binding of serum 6 to looped/cyclic peptides of protein M of SARS-CoV Urbani / Binding of serum 37 to looped/cyclic peptides of protein M of SARS-CoV Urbani / Binding of serum 6 to linear peptides of protein X3 of SARS-CoV Urbani / Binding of serum 37 to linear peptides of protein X3 of SARS-CoV Urbani / Binding of serum 37 to looped/cyclic peptides of protein X3 of SARS-CoV Urbani / Binding of serum 6 to linear peptides of protein X4 of SARS-CoV Urbani / Binding of serum 37 to linear peptides of protein X4 of SARS-CoV Urbani / Binding of serum 37 to looped/cyclic peptides of protein X4 of SARS-CoV Urbani / Binding of serum 6 to linear peptides of protein X5 of SARS-CoV Urbani / Binding of serum 37 to linear peptides of protein X5 of SARS-CoV Urbani / Binding of serum 37 to looped/cyclic peptides of protein X5 of SARS-CoV Urbani / Binding of serum 6 to linear peptides of protein N of SARS-CoV Urbani / Binding of serum 37 to linear peptides of protein N of SARS-CoV Urbani / Binding of serum 6 to linear peptide (PEPSCAN-ELISA) / Binding of serum 1a to looped/cyclic peptides of protein N of SARS-CoV Urbani / Binding of serum 1b to looped/cyclic peptides of protein N of SARS-CoV Urbani / Binding of serum 2 to looped/cyclic peptides of protein N of SARS-CoV Urbani / Binding of serum 6 to looped/cyclic peptides of protein N of SARS-CoV Urbani / Binding of serum 37 to looped/cyclic peptides of protein N of SARS-CoV Urbani / Binding of serum 62 to looped/cyclic peptides of protein N of SARS-CoV Urbani / Binding of serum London to looped/cyclic peptides of protein N of SARS-CoV Urbani / Binding of serum SARS-green to looped/cyclic peptides of protein N of SARS-CoV Urbani: unit not given here.

The test system of assay [2] is control sera (pooled serum of ten healthy LUMC hospital workers; commercial negative donor pooled serum from the Dutch bloodbank). Format: binding, human. Set-up: Binding of Control serum LUMC to linear peptides / Binding of Control serum Blood-bank to linear peptides / Binding of Control serum LUMC to looped peptides / Binding of Control Serum Blood-Bank to Looped peptides / Binding of Control serum LUMC to linear peptides of the protein M of SARS-CoV Urbani / Binding of Control serum Blood-bank to linear peptides of the protein M of SARS-CoV Urbani / Binding of Control serum LUMC to looped peptides of the protein M of SARS-CoV Urbani / Binding of Control Serum Blood-Bank to Looped peptides of the protein M of SARS-CoV Urbani: unit not given here.

For assay [3], the system named is rabbit serum obtained by immunizing a rabbit with the SARS-CoV strain Frankfurt 1. Format: binding. Further details: Binding of a rabbit serum to linear peptides / Binding of a rabbit serum to looped peptides / Rabbit serum linear peptides / Rabbit serum looped peptides / Binding of a rabbit serum to linear peptides of protein N of SARS-CoV Urbani (Rabbit serum linear peptides) / Binding of a rabbit serum to looped/cyclic peptides of protein N of SARS-CoV Urbani (Rabbit serum looped peptides): unit not given here.

With THITMTTVYHITVSQ, in assay [1], the “Binding of serum 1a to linear peptides of protein X2” value is on record as 0.6, the “Binding of serum 1a to looped/cyclic peptides of protein X2 of SARS-CoV Urbani” value is on record as 0.6, the “Binding of serum 1b to linear peptides of protein X2” value was found to be 0.5 and the “Binding of serum 1b to looped/cyclic peptides of protein X2 of SARS-CoV Urbani” value was 0.6. Further, in assay [1], the “Binding of serum 2 to linear peptides of protein X2” value stood at 0.4, the “Binding of serum 2 to looped/cyclic peptides of protein X2 of SARS-CoV Urbani” value was found to be 0.3, the “Binding of serum 6 to linear peptides of protein X2” value was 0.6 and the “Binding of serum 6 to looped/cyclic peptides of protein X2 of SARS-CoV Urbani” value is 0.2. For the same sequence, in assay [1], the “Binding of serum 37 to linear peptides of protein X2” value is on record as 0.7, the “Binding of serum 37 to looped/cyclic peptides of protein X2 of SARS-CoV Urbani” value came to 0.5, the “Binding of serum 62 to linear peptides of protein X2” value is 0.4 and the “Binding of serum 62 to looped/cyclic peptides of protein X2 of SARS-CoV Urbani” value is given as 0.6. For the same sequence, in assay [1], the “Binding of serum London to linear peptides of protein X2” value is on record as 0.4, the “Binding of serum London to looped/cyclic peptides of protein X2 of SARS-CoV Urbani” value was found to be 0.2, the “Binding of serum SARS-green to linear peptides of protein X2” value is listed as 0.4 and the “Binding of serum SARS-green to looped/cyclic peptides of protein X2 of SARS-CoV Urbani” value is 0.3. For the same sequence, in assay [1], the “Binding of serum SARS-yellow to linear peptides of protein X2” value was 0.5 and the “Binding of serum SARS-yellow to looped/cyclic peptides of protein X2 of SARS-CoV Urbani” value came out at 0.5. Also, in assay [2], the “Binding of Control Serum Blood-Bank to Looped peptides” value came out at 0.6, the “Binding of Control serum Blood-bank to linear peptides” value worked out at 0.3, the “Binding of Control serum LUMC to linear peptides” value was 0.8 and the “Binding of Control serum LUMC to looped peptides” value amounted to 0.7. Besides, in assay [3], the “Binding of a rabbit serum to linear peptides” value stood at 0.7 and the “Binding of a rabbit serum to looped peptides” value worked out at 0.4.

Turning to TIVTRPLMESELVIG, in assay [1], the “Binding of serum 1a to linear peptides of protein M of SARS-CoV Urbani” value is listed as 0.8, the “Binding of serum 1b to linear peptides of protein M of SARS-CoV Urbani” value came to 0.6, the “Binding of serum 2 to linear peptides of protein M of SARS-CoV Urbani” value was found to be 0.6 and the “Binding of serum 6 to linear peptides of protein M of SARS-CoV Urbani” value is given as 0.4. In addition, in assay [1], the “Binding of serum 37 to linear peptides of protein M of SARS-CoV Urbani” value turned out to be 0.7, the “Binding of serum 62 to linear peptides of protein M of SARS-CoV Urbani” value is given as 0.9, the “Binding of serum London to linear peptides of protein M of SARS-CoV Urbani” value worked out at 0.3 and the “Binding of serum SARS-green to linear peptides of protein M of SARS-CoV Urbani” value is on record as 0.3. In assay [1], the “Binding of serum SARS-yellow to linear peptides of protein M of SARS-CoV Urbani” value was determined as 0.1; the “Recognition of the peptide by sera of SARS-CoV infected individuals, and form (linear, looped/cyclic) in which it is recognized” value is “recognized in looped/cyclic form”. Moreover, in assay [2], the “Binding of Control Serum Blood-Bank to Looped peptides of the protein M of SARS-CoV Urbani” value was found to be 0.9, the “Binding of Control serum Blood-bank to linear peptides of the protein M of SARS-CoV Urbani” value was found to be 0.8, the “Binding of Control serum LUMC to linear peptides of the protein M of SARS-CoV Urbani” value is listed as 0.5 and the “Binding of Control serum LUMC to looped peptides of the protein M of SARS-CoV Urbani” value is 1.0. Besides, in assay [3], the “Rabbit serum linear peptides” value was determined as 0.3 and the “Rabbit serum looped peptides” value worked out at 0.3.

For TIYSHLLLVAAGMEA, in assay [1], the “Binding of serum 1a to linear peptides of protein X1 of SARS-CoV Urbani” value came out at 0.6, the “Binding of serum 1a to looped/cyclic peptide (PEPSCAN-ELISA)” value was found to be 0.5, the “Binding of serum 1b to linear peptides of protein X1 of SARS-CoV Urbani” value was 0.5 and the “Binding of serum 1b to looped/cyclic peptide (PEPSCAN-ELISA)” value stood at 0.4. Besides, in assay [1], the “Binding of serum 2 to linear peptides of protein X1 of SARS-CoV Urbani” value amounted to 0.4, the “Binding of serum 2 to looped/cyclic peptide (PEPSCAN-ELISA)” value was determined as 0.3, the “Binding of serum 6 to linear peptides of protein X1 of SARS-CoV Urbani” value came to 0.3 and the “Binding of serum 6 to looped/cyclic peptide (PEPSCAN-ELISA)” value worked out at 0.3. For the same sequence, in assay [1], the “Binding of serum 37 to linear peptides of protein X1 of SARS-CoV Urbani” value amounted to 0.5, the “Binding of serum 37 to looped/cyclic peptide (PEPSCAN-ELISA)” value came to 0.5, the “Binding of serum 62 to linear peptides of protein X1 of SARS-CoV Urbani” value is 0.4 and the “Binding of serum 62 to looped/cyclic peptide (PEPSCAN-ELISA)” value worked out at 0.5. Besides, in assay [1], the “Binding of serum London to linear peptides of protein X1 of SARS-CoV Urbani” value was determined as 0.2, the “Binding of serum London to looped/cyclic peptide (PEPSCAN-ELISA)” value was 0.2, the “Binding of serum SARS-green to linear peptides of protein X1 of SARS-CoV Urbani” value worked out at 0.3 and the “Binding of serum SARS-green to looped/cyclic peptide (PEPSCAN-ELISA)” value was determined as 0.2. In assay [1], the “Binding of serum SARS-yellow to linear peptides of protein X1 of SARS-CoV Urbani” value came to 0.5 and the “Binding of serum SARS-yellow to looped/cyclic peptide (PEPSCAN-ELISA)” value is given as 0.3. For the same sequence, in assay [2], the “Binding of Control Serum Blood-Bank to Looped peptides” value is listed as 0.5, the “Binding of Control serum Blood-bank to linear peptides” value stood at 0.4, the “Binding of Control serum LUMC to linear peptides” value amounted to 0.4 and the “Binding of Control serum LUMC to looped peptides” value is reported as 0.6. For the same sequence, in assay [3], the “Binding of a rabbit serum to linear peptides” value amounted to 0.1 and the “Binding of a rabbit serum to looped peptides” value was determined as 0.4.

As to TLACFVLAAVYRINW, in assay [1], the “Binding of serum 1a to linear peptides of protein M of SARS-CoV Urbani” value is on record as 0.7, the “Binding of serum 1a to looped/cyclic peptides of protein M of SARS-CoV Urbani” value amounted to 0.7, the “Binding of serum 1b to linear peptides of protein M of SARS-CoV Urbani” value is recorded as 0.5 and the “Binding of serum 1b to looped/cyclic peptides of protein M of SARS-CoV Urbani” value is reported as 0.5. In addition, in assay [1], the “Binding of serum 2 to linear peptides of protein M of SARS-CoV Urbani” value is reported as 0.5, the “Binding of serum 2 to looped/cyclic peptides of protein M of SARS-CoV Urbani” value worked out at 0.6, the “Binding of serum 6 to linear peptides of protein M of SARS-CoV Urbani” value stood at 0.3 and the “Binding of serum 6 to looped/cyclic peptides of protein M of SARS-CoV Urbani” value turned out to be 0.7. Also, in assay [1], the “Binding of serum 37 to linear peptides of protein M of SARS-CoV Urbani” value is given as 0.8, the “Binding of serum 37 to looped/cyclic peptides of protein M of SARS-CoV Urbani” value is 0.6, the “Binding of serum 62 to linear peptides of protein M of SARS-CoV Urbani” value came to 0.8 and the “Binding of serum 62 to looped/cyclic peptides of protein M of SARS-CoV Urbani” value is 0.6. Also, in assay [1], the “Binding of serum London to linear peptides of protein M of SARS-CoV Urbani” value was found to be 0.3, the “Binding of serum London to looped/cyclic peptides of protein M of SARS-CoV Urbani” value is 0.3, the “Binding of serum SARS-green to linear peptides of protein M of SARS-CoV Urbani” value stood at 0.3 and the “Binding of serum SARS-green to looped/cyclic peptides of protein M of SARS-CoV Urbani” value was 0.2. In addition, in assay [1], the “Binding of serum SARS-yellow to linear peptides of protein M of SARS-CoV Urbani” value is given as 0.0 and the “Binding of serum SARS-yellow to looped/cyclic peptides of protein M of SARS-CoV Urbani” value is given as 0.5. In assay [2], the “Binding of Control Serum Blood-Bank to Looped peptides of the protein M of SARS-CoV Urbani” value was found to be 0.8, the “Binding of Control serum Blood-bank to linear peptides of the protein M of SARS-CoV Urbani” value worked out at 0.5, the “Binding of Control serum LUMC to linear peptides of the protein M of SARS-CoV Urbani” value turned out to be 0.2 and the “Binding of Control serum LUMC to looped peptides of the protein M of SARS-CoV Urbani” value is reported as 0.7. For the same sequence, in assay [3], the “Rabbit serum linear peptides” value is on record as 0.5 and the “Rabbit serum looped peptides” value came out at 0.1.
